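Results reflect a 48-hour exposure of cells in 96-well plates to compound at five concentrations. At the TGI there is no net growth.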
Tests used:
Assay in all cases: DTP human tumour cell line panel, 48 h
A498 renal = test system: A498 renal
CAKI-1 renal = test system: CAKI-1 renal
CCRF-CEM leukemia = test system: CCRF-CEM leukemia
HCT-15 colon = test system: HCT-15 colon
HOP-62 NSCLC = test system: HOP-62 NSCLC
HS 578T breast = test system: HS 578T breast
NCI-H23 lung = test system: NCI-H23 lung
NCI-H522 lung = test system: NCI-H522 lung
OVCAR-8 ovarian = test system: OVCAR-8 ovarian
SNB-19 CNS = test system: SNB-19 CNS
TK-10 renal = test system: TK-10 renal
UACC-62 melanoma = test system: UACC-62 melanoma
UO-31 renal = test system: UO-31 renal

Structure (SMILES): O=c1[nH]c2nccn2c(Cl)c1Br
- TGI (A498 renal): > 100 µM
- TGI (CAKI-1 renal): 40.7 µM
- TGI (CCRF-CEM leukemia): 46.7 µM
- TGI (HCT-15 colon): 33.2 µM
- TGI (HOP-62 NSCLC): > 100 µM
- TGI (HS 578T breast): 66 µM
- TGI (NCI-H23 lung): 36.3 µM
- TGI (NCI-H522 lung): 29.8 µM
- TGI (OVCAR-8 ovarian): 39.3 µM
- TGI (SNB-19 CNS): 70.5 µM
- TGI (TK-10 renal): > 100 µM
- TGI (UACC-62 melanoma): 43.3 µM
- TGI (UO-31 renal): > 100 µM

Structure (SMILES): CCCOc1ccc(/C=C/C2=[N+](CCO)CCO2)cc1
- TGI (A498 renal): > 100 µM
- TGI (CAKI-1 renal): > 100 µM
- TGI (CCRF-CEM leukemia): > 100 µM
- TGI (HCT-15 colon): > 100 µM
- TGI (HOP-62 NSCLC): > 100 µM
- TGI (HS 578T breast): > 100 µM
- TGI (NCI-H23 lung): > 100 µM
- TGI (NCI-H522 lung): > 100 µM
- TGI (OVCAR-8 ovarian): > 100 µM
- TGI (SNB-19 CNS): > 100 µM
- TGI (TK-10 renal): > 100 µM
- TGI (UACC-62 melanoma): > 100 µM
- TGI (UO-31 renal): > 100 µM

Structure (SMILES): O=c1oc2ccccc2c(O)c1C(c1ccc2ccccc2c1)c1c(O)c2ccccc2oc1=O
- TGI (A498 renal): > 100 µM
- TGI (CAKI-1 renal): 54.7 µM
- TGI (CCRF-CEM leukemia): > 100 µM
- TGI (HCT-15 colon): 47.5 µM
- TGI (HOP-62 NSCLC): > 100 µM
- TGI (HS 578T breast): 70.6 µM
- TGI (NCI-H23 lung): 68.8 µM
- TGI (NCI-H522 lung): 48.5 µM
- TGI (OVCAR-8 ovarian): 31.6 µM
- TGI (SNB-19 CNS): > 100 µM
- TGI (TK-10 renal): > 100 µM
- TGI (UACC-62 melanoma): > 100 µM
- TGI (UO-31 renal): 35.4 µM

Structure (SMILES): CCC/C(Cl)=N\OC(=O)Nc1ccc(Br)cc1
- TGI (A498 renal): 32.2 µM
- TGI (CAKI-1 renal): 5.77 µM
- TGI (CCRF-CEM leukemia): 4.3 µM
- TGI (HCT-15 colon): 19.9 µM
- TGI (HOP-62 NSCLC): 42.6 µM
- TGI (HS 578T breast): 66.6 µM
- TGI (NCI-H23 lung): 40.6 µM
- TGI (NCI-H522 lung): 3.53 µM
- TGI (OVCAR-8 ovarian): 28.9 µM
- TGI (SNB-19 CNS): > 59.7 µM
- TGI (TK-10 renal): 27.2 µM
- TGI (UACC-62 melanoma): 44.7 µM
- TGI (UO-31 renal): 25.7 µM

Structure (SMILES): COCC1OCCN1C (configuration not stated)
- TGI (A498 renal): > 100 µM
- TGI (CAKI-1 renal): > 100 µM
- TGI (CCRF-CEM leukemia): > 100 µM
- TGI (HCT-15 colon): > 100 µM
- TGI (HOP-62 NSCLC): > 100 µM
- TGI (HS 578T breast): > 100 µM
- TGI (NCI-H23 lung): > 100 µM
- TGI (NCI-H522 lung): > 100 µM
- TGI (OVCAR-8 ovarian): > 100 µM
- TGI (SNB-19 CNS): > 100 µM
- TGI (TK-10 renal): > 100 µM
- TGI (UACC-62 melanoma): > 100 µM
- TGI (UO-31 renal): > 100 µM

Structure (SMILES): CC(=O)NNc1nc(C)c(C(/C=C/c2ccccc2O)=N/NC(=O)c2ccncc2)s1
- TGI (A498 renal): > 100 µM
- TGI (CAKI-1 renal): > 100 µM
- TGI (CCRF-CEM leukemia): > 100 µM
- TGI (HCT-15 colon): > 100 µM
- TGI (HOP-62 NSCLC): > 100 µM
- TGI (HS 578T breast): > 100 µM
- TGI (NCI-H23 lung): > 100 µM
- TGI (NCI-H522 lung): > 100 µM
- TGI (OVCAR-8 ovarian): > 100 µM
- TGI (SNB-19 CNS): > 100 µM
- TGI (TK-10 renal): > 100 µM
- TGI (UACC-62 melanoma): > 100 µM
- TGI (UO-31 renal): > 100 µM

Structure (SMILES): CC(C)CC(=O)OC[n+]1cccc(-c2c(COC(=O)NC(C)C)c(COC(=O)NC(C)C)c3n2CCC3)c1
- TGI (A498 renal): 59 µM
- TGI (CAKI-1 renal): 73.9 µM
- TGI (CCRF-CEM leukemia): > 100 µM
- TGI (HCT-15 colon): > 100 µM
- TGI (HOP-62 NSCLC): > 100 µM
- TGI (HS 578T breast): > 100 µM
- TGI (NCI-H23 lung): > 100 µM
- TGI (NCI-H522 lung): 49.2 µM
- TGI (OVCAR-8 ovarian): > 100 µM
- TGI (SNB-19 CNS): > 100 µM
- TGI (TK-10 renal): > 100 µM
- TGI (UACC-62 melanoma): > 100 µM
- TGI (UO-31 renal): 91.6 µM

Structure (SMILES): NC(=Nc1ccc(Cl)c(Cl)c1)c1ccccc1N
- TGI (A498 renal): 55.1 µM
- TGI (CAKI-1 renal): > 100 µM
- TGI (CCRF-CEM leukemia): > 100 µM
- TGI (HCT-15 colon): > 100 µM
- TGI (HOP-62 NSCLC): > 100 µM
- TGI (HS 578T breast): 50 µM
- TGI (NCI-H23 lung): > 100 µM
- TGI (NCI-H522 lung): 32.6 µM
- TGI (OVCAR-8 ovarian): > 100 µM
- TGI (SNB-19 CNS): > 100 µM
- TGI (TK-10 renal): > 100 µM
- TGI (UACC-62 melanoma): > 100 µM
- TGI (UO-31 renal): > 100 µM

Structure (SMILES): COc1ccc2cc(CNCCCN3CCN(CCCNCc4ccc5cc(OC)ccc5c4)CC3)ccc2c1
- TGI (A498 renal): 3.07 µM
- TGI (CAKI-1 renal): 3.2 µM
- TGI (CCRF-CEM leukemia): 1.3 µM
- TGI (HCT-15 colon): 3.01 µM
- TGI (HOP-62 NSCLC): 3.13 µM
- TGI (HS 578T breast): 3.32 µM
- TGI (NCI-H23 lung): 3.5 µM
- TGI (NCI-H522 lung): 3.81 µM
- TGI (OVCAR-8 ovarian): 3.21 µM
- TGI (SNB-19 CNS): 3.18 µM
- TGI (TK-10 renal): 3.3 µM
- TGI (UACC-62 melanoma): 1.36 µM
- TGI (UO-31 renal): 3.14 µM
